Measurements as given in patent US9464049B2, “Indole-carboxamides” (Hoffmann-La Roche Inc., priority 2013, dated 2016).

Experiments:
[1] = test system: human embryonic stem cell derived neural stem cells (NSCs); assay: Neural stem cell proliferation assay (neurogenesis assay, ATP levels by CellTiterGlo); format: cell-based; conditions: compound concentration at which 150% activity of control (100%) is reached, NSC proliferation by ATP (CellTiterGlo) after 4 days incubation, dose response 8 μM to 8 nM
Experimental: Neural Stem Cell Proliferation Assay
Neurogenic properties of small molecules are determined based on the proliferation of human embryonic stem cell derived neural stem cells (NSCs) which were derived via a dual smad inhibition as previously described (Chambers, S. M., et al., Highly efficient neural conversion of human ES and iPS cells by dual inhibition of SMAD signaling, Nature biotechnology, 2009. 27(3): p. 275-80.)
Compounds respond is measured by the increase in cells based on ATP levels (Promega:CellTiterGlo®) after an incubation period of 4 days.
NSCs are thawed and expanded over 3 passages. On the 14th day, NSCs are seeded in Polyornithin/Laminin coated 384 well plates at a cell density of 21,000 cells/cm^2 in a media volume of 38 μl.
4 hours after cell seeding, compound solutions are added at a volume of 2 μl. Stock solutions of the compounds (water, 5% DMSO) are diluted to obtain a dose response (11 points, dilution factor is 2), ranging from 8 μM to 8 nM. Controls are run to consistently determine the neurogenic properties of the cells: • Negative (neutral) control is cell culture Media (final DMSO concentration: 0.25%). • Positive controls are: • 1. cell culture Media+100 ng/ml FGF2 (final DMSO concentration: 0.1%) • 2. cell culture Media+20 ng/ml EGF (final DMSO concentration: 0.1%) • 3. cell culture Media+100 ng/ml Wnt3a (final DMSO concentration: 0.1%)
After 4 days incubation at 37° C., 5% CO2, the amount of ATP per well is quantified. The ATP concentration is proportional to the cell number. ATP is quantified by using the Promega CellTiterGlo® kit. The CellTiterGlo® reagents contain a cell lysis buffer, a thermo stable luciferase (UltraGlo™ recombinant luciferase), magnesium and luciferin. Luciferin reacts with ATP producing oxyluciferin, AMP and light. The luminescence signal is proportional to the ATP content.
The value of negative (neutral) control is determined for each assay plate by taking the average of 16 negative control wells. The neurogenic compound response is calculated for each compound as (compound/Negative Control)*100.
The values of EC150 from the dose response curve are determined for each test compound. The EC150 is the compound concentration at which 150% activity of control (100%) is reached.

[2] = Homo sapiens, Neural stem cell, 96 h

“5-Cyano-7-3,4-difluorophenyl)-1H-indole-2-carboxamide [Example 33]” showed an EC (150% of control) [1] of 0.056 µM.

Compound `Cc1c(C(N)=O)n(C)c2c(-c3ccc(Cl)cc3)cc(C#N)cc12` [Example 1, 7-(4-Chloro-phenyl)-5-cyano-1,3-dimethylindole-2-carboxamide] has an EC (150% of control) [1, 2] of 0.14 µM and a melting point of 237 °C.

`Cn1c(C(N)=O)cc2cc(F)cc(-c3ccc(F)cc3)c21` [Example 2, 5-Fluoro-7-(4-fluoro-phenyl)-1-methylindole-2-carboxamide] gave an EC (150% of control) [1, 2] of 1.4 µM and a melting point of 156 °C.

With `NC(=O)c1cc2cc(F)cc(-c3ccc(F)cc3)c2[nH]1` [Example 3, 5-Fluoro-7-(4-fluoro-phenyl)-1H-indole-2-carboxamide] the EC (150% of control) [1, 2] was 0.18 µM and the melting point was 162 °C.

With `Cc1c(C(N)=O)n(C)c2c(-c3ccc(F)cc3)cc(C#N)cc12` [Example 4, 5-Cyano-7-(4-fluorophenyl)-1,3-dimethylindole-2-carboxamide] the EC (150% of control) [1, 2] was 0.21 µM and the melting point was 216 °C.

Compound `Cc1c(C(N)=O)n(C)c2c(-c3ccc(F)c(F)c3)cc(C#N)cc12` [Example 5, 5-Cyano-7-(3,4-difluorophenyl)-1,3-dimethylindole-2-carboxamide] has an EC (150% of control) [1, 2] of 0.35 µM and a melting point of 212 °C.

Work on `Cc1c(C(N)=O)n(C)c2c(-c3ccc(C(F)(F)F)cc3)cc(C#N)cc12` [Example 6, 5-Cyano-1,3-dimethyl-7-[4-(trifluoromethyl)-phenyl]-indole-2-carboxamide] yielded an EC (150% of control) [1, 2] of 2.7 µM and a melting point of 195 °C.

Work on `Cc1c(C(N)=O)[nH]c2c(-c3ccc(F)c(F)c3)cc(C#N)cc12` [Example 7, 5-Cyano-7-(3,4-difluorophenyl)-3-methyl-1H-indole-2-carboxamide] yielded an EC (150% of control) [1, 2] of 0.3 µM and a melting point of 222 °C.

`Cc1c(C(N)=O)[nH]c2c(-c3ccc(C(F)(F)F)cc3)cc(C#N)cc12` [Example 8, 5-Cyano-3-methyl-7-[4-(trifluoromethyl)phenyl]-1H-indole-2-carboxamide] gave an EC (150% of control) [1, 2] of 0.4 µM and a melting point of 243 °C.

`Cc1c(C(N)=O)[nH]c2c(-c3ccc(F)cc3)cc(C#N)cc12` [Example 9, 5-Cyano-7-(4-fluorophenyl)-3-methyl-1H-indole-2-carboxamide] gave an EC (150% of control) [1, 2] of 0.22 µM and a melting point of 268 °C.

For `Cc1c(C(N)=O)[nH]c2c(-c3ccc(Cl)cc3)cc(C#N)cc12` [Example 10, 7-(4-Chlorophenyl)-5-cyano-3-methyl-1H-indole-2-carboxamide], the EC (150% of control) [1, 2] was 0.21 µM and the melting point was 291 °C.

For `Cc1c(C(N)=O)[nH]c2c(-c3ccc(F)cc3)cc(Cl)cc12` [Example 11, 5-Chloro-7-(4-fluorophenyl)-3-methyl-1H-indole-2-carboxamide], the EC (150% of control) [1, 2] was 0.22 µM and the melting point was 173 °C.

With `Cc1c(C(N)=O)[nH]c2c(-c3ccc(Cl)cc3)cc(Cl)cc12` [Example 12, 5-Chloro-7-(4-chlorophenyl)-3-methyl-1H-indole-2-carboxamide] the EC (150% of control) [1, 2] was 0.31 µM and the melting point was 252 °C.

For `Cc1c(C(N)=O)n(C)c2c(-c3ccc(F)cc3)cc(Cl)cc12` [Example 13, 5-Chloro-7-(4-fluorophenyl)-1,3-dimethylindole-2-carboxamide], the EC (150% of control) [1, 2] was 1.64 µM and the melting point was 178 °C.

`Cc1c(C(N)=O)n(C)c2c(-c3ccc(Cl)cc3)cc(Cl)cc12` [Example 14, 5-Chloro-7-(4-chlorophenyl)-1,3-dimethylindole-2-carboxamide] showed an EC (150% of control) [1, 2] of 0.84 µM and a melting point of 195 °C.

Work on `Cc1c(C(N)=O)[nH]c2c(-c3ccc(F)c(F)c3)cc(Cl)cc12` [Example 15, 5-Chloro-7-(3,4-difluorophenyl)-3-methyl-1H-indole-2-carboxamide] yielded an EC (150% of control) [1, 2] of 0.64 µM and a melting point of 206 °C.

Work on `Cc1c(C(N)=O)[nH]c2c(-c3ccc(C(F)(F)F)cc3)cc(Cl)cc12` [Example 16, 5-Chloro-3-methyl-7-[4-(trifluoromethyl)-phenyl]-1H-indole-2-carboxamide] yielded an EC (150% of control) [1, 2] of 0.75 µM and a melting point of 184 °C.

For `Cc1c(C(N)=O)n(C)c2c(-c3ccc(F)c(F)c3)cc(Cl)cc12` [Example 17, 5-Chloro-7-(3,4-difluorophenyl)-1,3-dimethylindole-2-carboxamide], the EC (150% of control) [1, 2] was 3.3 µM and the melting point was 196 °C.

`Cc1c(C(N)=O)n(C)c2c(-c3ccc(C(F)(F)F)cc3)cc(Cl)cc12` [Example 18, 5-Chloro-1,3-dimethyl-7-[4-(trifluoromethyl)phenyl]indole-2-carboxamide] showed an EC (150% of control) [1, 2] of 2.8 µM and a melting point of 206 °C.

In the case of `Cc1c(C(N)=O)[nH]c2c(-c3ccc(OC(F)(F)F)cc3)cc(C#N)cc12` [Example 19, 5-Cyano-3-methyl-7-[4-(trifluoromethoxy)-phenyl]-1H-indole-2-carboxamide], the EC (150% of control) [1, 2] is reported as 1.13 µM and the melting point is reported as 207 °C.

Compound `Cc1c(C(N)=O)[nH]c2c(-c3ccc(C#N)cc3)cc(C#N)cc12` [Example 20, 5-Cyano-7-(4-cyanophenyl)-3-methyl-1H-indole-2-carboxamide] has an EC (150% of control) [1, 2] of 0.24 µM and a melting point of 294 °C.

Compound `Cc1c(C(N)=O)n(C)c2c(-c3ccc(OC(F)(F)F)cc3)cc(C#N)cc12` [Example 21, 5-Cyano-1,3-dimethyl-7-[4-(trifluoromethoxy)phenyl]indole-2-carboxamide] has an EC (150% of control) [1, 2] of 0.43 µM and a melting point of 106 °C.

In the case of `Cc1c(C(N)=O)n(C)c2c(-c3ccc(C#N)cc3)cc(C#N)cc12` [Example 22, 5-Cyano-7-(4-cyanophenyl)-1,3-dimethylindole-2-carboxamide], the EC (150% of control) [1, 2] is reported as 0.6 µM and the melting point is reported as 226 °C.

`Cc1c(C(N)=O)[nH]c2c(-c3ccc(C#N)cc3)cc(Cl)cc12` [Example 23] gave an EC (150% of control) [1, 2] of 0.28 µM and a melting point of 267 °C.

`Cc1c(C(N)=O)[nH]c2c(-c3ccc(OC(F)(F)F)cc3)cc(Cl)cc12` [Example 24, 5-Chloro-3-methyl-7-[4-(trifluoromethoxy)phenyl]-1H-indole-2-carboxamide] showed an EC (150% of control) [1, 2] of 1.32 µM and a melting point of 149 °C.

Compound `Cc1c(C(N)=O)[nH]c2c(-c3ccc(F)cc3F)cc(Cl)cc12` [Example 25, 5-Chloro-7-(2,4-difluorophenyl)-3-methyl-1H-indole-2-carboxamide] has an EC (150% of control) [1, 2] of 0.21 µM and a melting point of 196 °C.

In the case of `Cc1c(C(N)=O)[nH]c2c(-c3ccc(Cl)cc3Cl)cc(Cl)cc12` [Example 26, 5-Chloro-7-(2,4-dichlorophenyl)-3-methyl-1H-indole-2-carboxamide], the EC (150% of control) [1, 2] is reported as 0.33 µM and the melting point is reported as 195 °C.

`Cc1c(C(N)=O)n(C)c2c(-c3ccc(OC(F)(F)F)cc3)cc(Cl)cc12` [Example 27, 5-Chloro-1,3-dimethyl-7-[4-(trifluoromethoxy)-phenyl]indole-2-carboxamide] showed an EC (150% of control) [1, 2] of 3.67 µM and a melting point of 181 °C.

For `Cc1c(C(N)=O)n(C)c2c(-c3ccc(C#N)cc3)cc(Cl)cc12` [Example 28, 5-Chloro-7-(4-cyanophenyl)-1,3-dimethylindole-2-carboxamide], the EC (150% of control) [1, 2] was 1.06 µM and the melting point was 199 °C.

With `Cc1c(C(N)=O)n(C)c2c(-c3ccc(F)cc3F)cc(Cl)cc12` [Example 29, 5-Chloro-7-(2,4-difluorophenyl)-1,3-dimethylindole-2-carboxamide] the EC (150% of control) [1, 2] was 0.23 µM and the melting point was 220 °C.

For `Cc1c(C(N)=O)n(C)c2c(-c3ccc(Cl)cc3Cl)cc(Cl)cc12` [Example 30, 5-Chloro-7-(2,4-dichlorophenyl)-1,3-dimethylindole-2-carboxamide], the EC (150% of control) [1, 2] was 0.93 µM and the melting point was 221 °C.

Compound `Cc1c(C(N)=O)[nH]c2c(-c3ccc(Cl)c(F)c3)cc(Cl)cc12` [Example 31, 5-Chloro-7-(4-chloro-3-fluorophenyl)-3-methyl-1H-indole-2-carboxamide] has an EC (150% of control) [1, 2] of 0.43 µM and a melting point of 283 °C.

Compound `Cc1c(C(N)=O)n(C)c2c(-c3ccc(Cl)c(F)c3)cc(Cl)cc12` [Example 32, 5-Chloro-7-(4-chloro-3-fluorophenyl)-1,3-dimethylindole-2-carboxamide] has an EC (150% of control) [1, 2] of 1.02 µM and a melting point of 192 °C.

`N#Cc1cc(-c2ccc(F)cc2)c2[nH]c(C(N)=O)cc2c1` [Example 34, 5-Cyano-7-(4-fluorophenyl)-1H-indole-2-carboxamide] showed an EC (150% of control) [1, 2] of 0.057 µM and a melting point of 234 °C.
